From patent publication US20020061927A1, “Insulin receptor activators for the treatment of metabolic disorders induced by treatment with HIV protease inhibitors” (priority 2000, published 2002)

Tests used:
3T3 L1 adipocytes = assay: Reversal of HIV protease inhibitor block of glucose transport in cells (14C-2-deoxy-D-glucose uptake); type: cell-based; conditions: for effect of HIV protease inhibitor drug on glucose transport activity: 3T3 L1 adipocytes; for glucose transport: 3T3 L1 cells; for effect on glucose transport activity inhibited by HIV protease inhibitor drugs: 3T3 L1 adipocytes in presence of Ritonavir, Indinavir or Amprenavir
Procedure: Stimulation of the insulin receptor leads to the transport of glucose from the blood into cells, thus modulating blood glucose levels. 3T3 L1 fibroblasts (ATCC) were grown in Dulbecco's modified Eagle's medium (DMEM) with 10% fetal bovine serum (FBS). The cells were plated at a density of 3×10^4 cells/ml in 96 well plates (0.1 ml/well). Two days after confluence was reached, the cells were treated for 3 days with 0.5 mM isobutylmethylxanthine (IBMX), 1 μM dexamethasone, and 1.7 μM insulin. The cells were then transferred to DMEM with 10% FBS and supplemented with 1.7 μM insulin for 2 more days. The cells were maintained in DMEM with 10% FBS for an additional 4 days. Finally, the cells were serum starved overnight in 0.1% bovine serum albumin (BSA) in DMEM.
The following day, the cells were pretreated with Indinavir, Ritonavir, or Amprenavir (at the concentrations indicated in the Tables below) in a buffer containing 150 mM NaCl, 1.7 mM KCl, 0.9 mM CaCl2 1.47 mM K2HPO4 (pH 7.4) and 0.01% BSA for 6 minutes followed by treatment with a compound described in this patent (56 μM compound 1; 20 μM compound 2) with or without 100 nM insulin for 30 minutes. Following incubation, the cells were labeled with ^14C-labeled 2-deoxy-D-glucose (0.5 μCi/ml) and incubation was continued for additional 30 minutes at 37° C. The cells were then washed 3 times with ice-cold PBS/20 mM glucose and lysed in 100 μl of lysis buffer (50 mM Hepes pH 7.6, 1% Triton X-100) for 30 minutes at room temperature. Radioactivity in the lysate was quantified by scintillation counting.
Once ^14C-2-deoxy-D-glucose is transported into the cells, it is not released. Glucose transport is, therefore, proportional to the amount of radioactivity in the lysate.

male CD rats = assay: Reversal of protease inhibitor-mediated insulin resistance in normal rats (oral glucose challenge); type: in vivo, rat; conditions: indinavir sulfate plus compound 1, oral
Procedure: Seven to nine week-old male CD rats (Charles River Laboratories, Hollister, Calif.) were used to study the effects of protease inhibitor and compound 1. Animals were kept in a 12 h/12 h light/dark cycle and were fasted overnight.
Indinavir sulfate was prepared in water, and compound 1 was prepared in PBS. Seven animals (average weight 300 grams) were used in each treatment condition. The animals were treated with vehicle or indinavir sulfate or indinavir sulfate plus compound 1 by oral administration. After 30 min, the animals were challenged with oral glucose load (2 g/kg), and blood glucose measurements were taken at 0 min, 10 min, 20 min, 30 min, 60 min, 90 min and 120 min by tail bleeding. Glucose measurements were made with a Glucometer and Glucose strips (Bayer).
The blood glucose levels are reported as the percentage of the values before challenge (“zero time” values).
Blood samples obtained from 0 min and 30 min time points were analysed for plasma insulin levels by ELISA (ALPCO Diagnostics, Windham, N.H.).

[1] = 5 μM Amprenavir pretreatment, 56 μM compound 1 / 20 μM compound 2
[2] = 5 μM Indinavir pretreatment, 56 μM compound 1 / 20 μM compound 2
[3] = 10 μM Amprenavir pretreatment, 56 μM compound 1 / 20 μM compound 2
[4] = 10 μM Indinavir pretreatment, 56 μM compound 1 / 20 μM compound 2
[5] = 20 μM Indinavir pretreatment, 56 μM compound 1 / 20 μM compound 2

CC(C)c1nc(CN(C)C(=O)N[C@H](C(=O)N[C@@H](Cc2ccccc2)C[C@H](O)[C@H](Cc2ccccc2)NC(=O)OCc2cncs2)C(C)C)cs1 [Ritonavir, reference compound]
effect of HIV protease inhibitor drug on glucose transport activity (3T3 L1 adipocytes): inhibited

CC(C)(C)NC(=O)[C@@H]1CN(Cc2cccnc2)CCN1C[C@@H](O)C[C@@H](Cc1ccccc1)C(=O)N[C@H]1c2ccccc2C[C@H]1O [Indinavir, reference compound]
effect of HIV protease inhibitor drug on glucose transport activity (3T3 L1 adipocytes): inhibited

O=C(Nc1ccc2c(O)cc(S(=O)(=O)Nc3ccc(Cl)c(S(=O)(=O)O)c3)cc2c1)Nc1ccc2c(O)cc(S(=O)(=O)Nc3ccc(Cl)c(S(=O)(=O)O)c3)cc2c1 [Compound 1]
glucose transport (3T3 L1 adipocytes; [1]): 1.83 fold over fold over 50 nM insulin
glucose transport (3T3 L1 adipocytes; [2]): 1.34 fold over fold over 50 nM insulin
glucose transport (3T3 L1 adipocytes; 5 μM Ritonavir pretreatment, 56 μM compound 1): 1.32 foldover fold over 50 nM insulin
glucose transport (3T3 L1 adipocytes; [3]): 1.53 fold over fold over 50 nM insulin
glucose transport (3T3 L1 adipocytes; [4]): 1.16 fold over fold over 50 nM insulin
glucose transport (3T3 L1 adipocytes; 20 μM Amprenavir pretreatment, 56 μM compound 1): 1.21 fold over fold over 50 nM insulin
glucose transport (3T3 L1 adipocytes; [5]): 1.12 fold over fold over 50 nM insulin
effect on glucose transport activity inhibited by HIV protease inhibitor drugs (3T3 L1 adipocytes): increase the glucose transport activity
protease inhibitor-mediated insulin resistance (male CD rats): Reversal of Protease Inhibitor-mediated Insulin Resistance

O=C(Nc1ccc2c(O)c(/N=N/c3ccc(/N=N/c4ccc(S(=O)(=O)O)cc4)cc3S(=O)(=O)O)c(S(=O)(=O)O)cc2c1)Nc1ccc2c(O)cc(S(=O)(=O)O)c(N=Nc3ccc(/N=N/c4ccc(S(=O)(=O)O)cc4)cc3S(=O)(=O)O)c2c1 [Compound 2]
glucose transport (3T3 L1 adipocytes; [1]): 1.25 foldover fold over 50 nM insulin
glucose transport (3T3 L1 adipocytes; [2]): 1.38 fold over fold over 50 nM insulin
glucose transport (3T3 L1 adipocytes; [3]): 1.07 foldover fold over 50 nM insulin
glucose transport (3T3 L1 adipocytes; [4]): 1.25 fold over fold over 50 nM insulin
glucose transport (3T3 L1 adipocytes; [5]): 1.02 fold over fold over 50 nM insulin
effect on glucose transport activity inhibited by HIV protease inhibitor drugs (3T3 L1 adipocytes): increase the glucose transport activity

CC(C)CN(C[C@@H](O)[C@H](Cc1ccccc1)NC(=O)O[C@H]1CCOC1)S(=O)(=O)c1ccc(N)cc1 [Amprenavir, reference compound]
effect of HIV protease inhibitor drug on glucose transport activity (3T3 L1 adipocytes): inhibited
